Data: US4783462A, “3(2H)pyridazinone, and anti-allergic agent containing it” (Nissan Chemical Industries Ltd., priority 1985, dated 1988)

Tests used:
LTC4 [1] = experiment: LTC4 antagonism in isolated guinea-pig trachea, Test method (i) (Table 2); type: cell-based; conditions: Cavia porcellus, 5 min, read-out: Antagonism (%)
Description: (§1) (i) LTC4 and LTD4 antagonisms in guinea-pig trachea
(§2) Antagonisms for LTC4 and LTD4 were determined in isolated guinea-pig trachea prepared as spiral strip. Tracheal preparations were suspended under 1 g tension in 10 ml organ baths and they were incubated for 1 hr prior to use. Contractile responses to LTC4 (2×10^-8 g/ml) and LTD4 (2×10^-8 g/ml) were obtained after the maximal response to histamine (10^-4 M). Test compounds dissolved in 100% dimethyl sulfoxide were added to the organ baths (final concentration of 10^-5 g/ml or 10^-6 g/ml) 5 min prior to LTC4 and LTD4 addition, and then contractile responses to LTC4 and LTD4 were compared with those of control which was obtained from a paired trachea in the absence of test compounds. LTC4 - and LTD4 -induced contractions were expressed as a percentage of the maximal response to histamine. The antagonism was determined as follows:
(§3) Antagonism (%)=(1.0-% contraction in test/% contraction in […]

LTC4 [2] = experiment: Antagonism in isolated guinea-pig trachea, Test method (i) (Table 3, given as LTC4 antagonism); type: cell-based; conditions: Cavia porcellus, 5 min, test compound 10^-5 g/ml, given as LTC4 antagonisms
How it was run: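 Spiral strips of guinea-pig trachea under 1 g tension, contracted by LTC4 (2×10^-8 g/ml) after maximal histamine (10^-4 M) response. Compounds added at 10^-5 or 10^-6 g/ml final 5 min beforehand; contraction expressed as % histamine maximum and antagonism % calculated against paired untreated trachea.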

[3] = tested on: anaphylactic bronchoconstriction in passively sensitized guinea-pig; experiment: Effect on anaphylactic bronchoconstriction in passively sensitized guinea-pig; type: in vivo; conditions: 2 mg/kg i.v.
Description: (iii) Effect on anaphylactic bronchoconstriction in passively sensitized guinea-pig
Male guinea-pigs (350-450 g) were passively sensitized with intravenous (i.v.) injection of 0.125 ml rabbit anti-EA (egg albumin) serum (Cappel Laboratories) 1 day preceding the experiment. […] Sensitized guinea-pigs were anaesthetized with intraperitoneal injection of urethane (1.5 g/kg). The right jugular vein was cannulated for the administration of the all agents and trachea was cannulated to record total pulmonary resistance. Guinea-pigs were artificially ventilated by a small animal respirator (Shinano, Model SN-480-7) set at a stroke volume of 5 ml and a rate of 50 breaths per min. […] The increase in air overflow volume was expressed as a percentage of the maximum bronchoconstriction obtained by clamping off the trachea. Following surgical preparation, the animals were pretreated with indomethacin (1.0 mg/kg, 10 min), pyrilamine (2 mg/kg, 6 min) and propranolol (0.1 mg/kg, 5 min) prior to the EA challenge (0.1 or 10 mg/kg). All test compounds, 2 mg/kg in 3% Tween 80 or 3% PEG-400, were administered 1 min before the EA challenge. Inhibition (%) of bronchoconstriction was determined as follows: Inhibition (%)=(1.0%-maximum bronchoconstriction in test/% maximum bronchoconstriction in control)×100. The maximum bronchoconstriction was obtained within 20 min after the EA challenge.
In the Table, the dose of EA was 10 mg/kg, and each compound was dissolved or suspended in 3% Tween 80.
The dose of EA was 0.1 mg/kg.

ddY strain male mice [4] = experiment: Acute toxicity test, Test method-(2), intraperitoneal; type: in vivo; conditions: 7 days
Description: The lethal ratio was determined in ddY strain male mice (4 weeks old) at 7 days after the intraperitoneal injection of test compounds.

LTD4 [5] = experiment: LTD4 antagonism in isolated guinea-pig trachea, Test method (i) (Table 4, values with asterisk); type: cell-based; conditions: Cavia porcellus, 5 min, test compound 10^-6 g/ml, 5 min prior
Description: as §1, §2, §3

ddY strain male mice [6] = experiment: Acute toxicity test, Test method-(1), oral; type: in vivo; conditions: 7 days
Description: The lethal ratio was determined in ddY strain male mice (4 weeks old) at 7 days after the oral administation of test compounds.

LTD4 [7] = experiment: LTD4 antagonism in isolated guinea-pig trachea with indomethacin, Test method (ii) (Table 4); type: cell-based; conditions: Cavia porcellus, 0.5 h, LTD4 2×10^-8 g/ml, test compound 10^-6 g/ml, 30 min prior, 5 μmol indomethacin
Description: (ii) LTD4 antagonism in guinea-pig trachea
Antagonism for LTD4 was determined in isolated guinea-pig trachea prepared as spiral strip. Tracheal preparations were suspended under 1 g tension in 10 ml organ baths containing 5 μmol of indomethacin and they were incuated for 1 hr prior to use. Contractile responses to LTD4 (2×10^-8 g/ml) were obtained after the maximal response to histamine (10^-4 M). Test compounds dissolved in 100% dimethyl sulfoxide were added to the organ baths (final concentration of 10^-6 g/ml) 30 min prior to LTD4 addition, and then contractile responses to LTD4 were compared with those of control which was obtained from a paired trachea in the absence of test compounds. LTD4 -induced contractions were expressed as a percentage of the maximal response to histamine. The antagonism was determined as follows:
as §3

[8] = LTC4 2×10^-8 g/ml, test compound 10^-5 g/ml
[9] = Table 5-(1), EA 10 mg/kg, 3% Tween 80
[10] = Table 5-(2), EA 0.1 mg/kg, PEG-400
[11] = Table 5-(2), EA 0.1 mg/kg, Tween 80

Row | Structure (SMILES) | inhibition at 10 µg/mL (LTC4 [2]) [%] | inhibition at 1 µg/mL (LTD4 [5]) [%] | other results
1 | CCCc1cc(C(=O)OC)ccc1OCCCNc1cn[nH]c(=O)c1Cl [Compound No. 4, 4-Chloro-5-[3-(2-n-propyl-4-methoxycarbonylphenoxy)propylamino]-3(2H)pyridazinone] | 85 |  | inhibition at 10 µg/mL (LTC4 [1]; [8]): 99%; Inhibition (%) [3, 9]: 27%; Lethal ratio (Death number/Experimental number) (ddY strain male mice [4]; 200 mg/kg intraperitoneal): 0/2; Lethal ratio (Death number/Experimental number) (ddY strain male mice [4]; 400 mg/kg intraperitoneal): 0/1
2 | CCCc1cc(C(=O)OC)ccc1OCCCNc1cnn(CC)c(=O)c1Cl [Compound No. 6, 4-Chloro-5-[3-(2-n-propyl-4-methoxycarbonylphenoxy)propylamino]-2-ethyl-3(2H)pyridazinone] | 96 | 78 | Inhibition (%) [3, 10]: 44%
3 | CCCc1cc(C(=O)O)ccc1OCCCNc1cnn(CC)c(=O)c1Cl [Compound No. 7, 4-Chloro-5-[3-(2-n-propyl-4-carboxyphenoxy)propylamino]-2-ethyl-3(2H)pyridazinone] | 82 |  | inhibition at 10 µg/mL (LTC4 [1]; [8]): 95%; Inhibition (%) [3, 9]: 31%; Lethal ratio (Death number/Experimental number) (ddY strain male mice [4]; 200 mg/kg intraperitoneal): 0/2; Lethal ratio (Death number/Experimental number) (ddY strain male mice [4]; 400 mg/kg intraperitoneal): 0/1
4 | CCn1ncc(NCCc2ccc(OC)cc2)c(Cl)c1=O [Compound No. 20, 4-Chloro-5-[2-(4-methoxyphenyl)ethylamino]-2-ethyl-3(2H)pyridazinone] | 80 |  | inhibition at 10 µg/mL (LTC4 [1]; [8]): 73%
5 | CCCc1cc(OC)ccc1OCCCNc1cnn(CC)c(=O)c1Cl [Compound No. 82, 4-chloro-5-[3-(2-n-propyl-4-methoxyphenoxy)propylamino]-2-ethyl-3(2H)pyridazinone] | 100 |  | Lethal ratio (ddY strain male mice [6]; 400 mg/kg oral): 0/2; Lethal ratio (ddY strain male mice [6]; 800 mg/kg oral): 0/2
6 | CCCCc1cc(C(=O)O)ccc1OCCCNc1cnn(C(C)C)c(=O)c1Cl [Compound No. 112, 4-chloro-5-[3-(2-n-butyl-4-carboxyphenoxy)propylamino]-2-i-propyl-3(2H) pyridazinone] | 100 | 62 | 
7 | CCCCc1cc(C(N)=O)ccc1OCCCNc1cnn(C(C)C)c(=O)c1Cl [Compound No. 114, 4-Chloro-5-[3-(2-n-butyl-4-carbamoylphenoxy)propylamino]-2-i-propyl-3-(2H)pyridazinone] | 89 | 66 | 
8 | C=CCc1cc(C#N)ccc1OCCCNc1cnn(CC)c(=O)c1Br [Compound No. 117] | 98 | 67 | 
9 | CCCc1cc(C#N)ccc1OCC(CNc1cnn(C(C)C)c(=O)c1Cl)OC (stereo not shown) [Compound No. 158, 4-Chloro-5-[3-(2-n-propyl-4-cyanophenoxy)-2-methoxypropylamino]-2-i-propyl-3(2H)pyridazinone] | 93 | 53 | 
10 | CCCc1c(OCC(O)COc2ccc3c(=O)cc(C(=O)O)oc3c2CCC)ccc(C(C)=O)c1O (stereo not shown) [FPL-55712, reference compound] | 97 | 76 | inhibition at 10 µg/mL (LTC4 [1]): 100%; inhibition at 1 µg/mL (LTD4 [7]): 94%; Inhibition (%) [3, 9]: 27%; Inhibition (%) [3, 11]: 60%
11 | CCCc1c(OCCCOc2cnn(C(C)(C)C)c(=O)c2Cl)ccc2c(=O)cc(C(=O)OCC)oc12 [compound 23] | 31 |  | inhibition at 10 µg/mL (LTC4 [1]; [8]): 27%
12 | CCCc1c(OCCCOc2cnn(CC)c(=O)c2Cl)ccc2c(=O)cc(C(=O)OCC)oc12 [compound 25] | 24 |  | inhibition at 10 µg/mL (LTC4 [1]; [8]): 53%; Inhibition (%) [3, 9]: 18%
13 | C=CCc1cc(C#N)ccc1OCCCNc1cnn(C(C)C)c(=O)c1Cl [compound 69] | 99 | 66 | Inhibition (%) [3, 11]: 51%
14 | Cc1ccccc1OCCCNc1cnn(C(C)C)c(=O)c1Cl [compound 72] | 85 |  | Lethal ratio (ddY strain male mice [6]; 400 mg/kg oral): 0/2
15 | C=CCc1cc(C#N)ccc1OCCCNc1cnn(CC)c(=O)c1Cl [compound 80] | 98 | 59 | Lethal ratio (ddY strain male mice [6]; 400 mg/kg oral): 0/2; Lethal ratio (ddY strain male mice [6]; 800 mg/kg oral): 0/2
16 | CCc1cc(C=O)ccc1OCCCNc1cnn(C(C)C)c(=O)c1Cl [compound 94] | 98 |  | Lethal ratio (ddY strain male mice [6]; 400 mg/kg oral): 0/2; Lethal ratio (ddY strain male mice [6]; 800 mg/kg oral): 0/2
17 | CCc1cc(C(=O)OC)ccc1OCCCNc1cnn(C(C)C)c(=O)c1Cl [compound 101] | 92 |  | Inhibition (%) [3, 10]: 51%; Lethal ratio (ddY strain male mice [6]; 400 mg/kg oral): 0/2; Lethal ratio (ddY strain male mice [6]; 800 mg/kg oral): 0/2
18 | CCCc1cc(C#N)ccc1OCCCNc1cnn(CC)c(=O)c1Br [compound 116] | 90 | 82 | 
19 | CCCc1cc(C(=O)OC)ccc1OCCCNc1cnn(CC)c(=O)c1Br [compound 118] | 91 | 69 | 
20 | CCCc1cc(C#N)ccc1OCCCNc1cnn(C(C)C)c(=O)c1Br [compound 120] |  | 82 | 
21 | CCCc1cc(C(N)=O)ccc1OCCCNc1cnn(CC)c(=O)c1Br [compound 121] |  | 43 | 
22 | C=CCc1cc(C#N)ccc1OCCCNc1cnn(C(C)C)c(=O)c1Br [compound 123] |  | 65 | 
23 | CCCc1cc(C#N)ccc1OCCCNc1cnn(C(C)(C)C)c(=O)c1CCC [compound 128] |  | 17 | 
24 | CCCc1cc(C(=O)OC)ccc1OCCCNc1cn[nH]c(=O)c1CCC [compound 131] |  | 33 | 
25 | CCCc1cc(C(=O)O)ccc1OCCCNc1cn[nH]c(=O)c1CCC [compound 132] |  | 26 | 
26 | CCCc1cc(C(=O)OC)ccc1OCCCNc1cnn(CC)c(=O)c1CCC [compound 133] |  | 27 | 
